According to PubChem BioAssay (NCI):
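Method: 48-hour compound exposure of cells in 96-well plates, five concentrations, linear interpolation of endpoints. The concentration for 50% growth inhibition is given as GI50. The concentration for full growth arrest is given as TGI.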

Legend:
Experiment in all cases: NCI-60 cell line screen, 48 h
HOP-92 NSCLC = system: HOP-92 NSCLC
HL-60(TB) leukemia = system: HL-60(TB) leukemia
RPMI-8226 leukemia = system: RPMI-8226 leukemia
NCI/ADR-RES ovarian = system: NCI/ADR-RES ovarian
SK-OV-3 ovarian = system: SK-OV-3 ovarian
NCI-H23 lung = system: NCI-H23 lung
SNB-19 CNS = system: SNB-19 CNS
SW-620 colon = system: SW-620 colon
NCI-H460 lung = system: NCI-H460 lung
HCC-2998 colon = system: HCC-2998 colon
SF-268 CNS = system: SF-268 CNS
K-562 leukemia = system: K-562 leukemia
CAKI-1 renal = system: CAKI-1 renal
CCRF-CEM leukemia = system: CCRF-CEM leukemia
SN12C renal = system: SN12C renal
SF-539 CNS = system: SF-539 CNS
PC-3 prostate = system: PC-3 prostate
NCI-H226 lung = system: NCI-H226 lung
NCI-H522 lung = system: NCI-H522 lung
SK-MEL-28 melanoma = system: SK-MEL-28 melanoma
TK-10 renal = system: TK-10 renal
ACHN renal = system: ACHN renal
OVCAR-5 ovarian = system: OVCAR-5 ovarian
U251 CNS = system: U251 CNS
MOLT-4 leukemia = system: MOLT-4 leukemia
A498 renal = system: A498 renal
MALME-3M melanoma = system: MALME-3M melanoma
T-47D breast = system: T-47D breast
MDA-MB-231 breast = system: MDA-MB-231 breast
UO-31 renal = system: UO-31 renal
SK-MEL-5 melanoma = system: SK-MEL-5 melanoma
OVCAR-3 ovarian = system: OVCAR-3 ovarian
HCT-116 colon = system: HCT-116 colon
HOP-62 NSCLC = system: HOP-62 NSCLC
SR leukemia = system: SR leukemia
SF-295 CNS = system: SF-295 CNS
UACC-257 melanoma = system: UACC-257 melanoma
RXF 393 renal = system: RXF 393 renal
HT29 colon = system: HT29 colon
LOX IMVI melanoma = system: LOX IMVI melanoma
OVCAR-8 ovarian = system: OVCAR-8 ovarian
MDA-MB-435 = system: MDA-MB-435
COLO 205 colon = system: COLO 205 colon
IGROV1 ovarian = system: IGROV1 ovarian
MDA-MB-468 breast = system: MDA-MB-468 breast
KM12 colon = system: KM12 colon
MCF7 breast = system: MCF7 breast
SNB-75 CNS = system: SNB-75 CNS
OVCAR-4 ovarian = system: OVCAR-4 ovarian
UACC-62 melanoma = system: UACC-62 melanoma
HS 578T breast = system: HS 578T breast
DU-145 prostate = system: DU-145 prostate
SK-MEL-2 melanoma = system: SK-MEL-2 melanoma
A549 NSCLC = system: A549 NSCLC
M14 melanoma = system: M14 melanoma
BT-549 breast = system: BT-549 breast
HCT-15 colon = system: HCT-15 colon
786-0 renal = system: 786-0 renal
EKVX NSCLC = system: EKVX NSCLC

`COc1ccc(-c2cc(-c3cc(C(C)C)c(O)cc3C)nn2-c2ccc(S(N)(=O)=O)cc2)cc1` gave a GI50 (HOP-92 NSCLC) of 7.18 µM, a TGI (HOP-92 NSCLC) of 21.5 µM and a GI50 (HL-60(TB) leukemia) of 3.53 µM. The TGI (HL-60(TB) leukemia) was 19.8 µM, the GI50 (RPMI-8226 leukemia) was 4.83 µM and the TGI (RPMI-8226 leukemia) was 32.8 µM. It also gave a GI50 (NCI/ADR-RES ovarian) of 3.06 µM, a TGI (NCI/ADR-RES ovarian) of 11.4 µM and a GI50 (SK-OV-3 ovarian) of 13.8 µM. It also gave a TGI (SK-OV-3 ovarian) of 27.3 µM, a GI50 (NCI-H23 lung) of 10.5 µM and a TGI (NCI-H23 lung) of 23 µM. It also gave a GI50 (SNB-19 CNS) of 12.5 µM, a TGI (SNB-19 CNS) of 25 µM and a GI50 (SW-620 colon) of 6.44 µM. For the same molecule, the TGI (SW-620 colon) was 20.4 µM, the GI50 (NCI-H460 lung) was 8.42 µM and the TGI (NCI-H460 lung) was 22 µM. It also gave a GI50 (HCC-2998 colon) of 11.4 µM, a TGI (HCC-2998 colon) of 23.6 µM and a GI50 (SF-268 CNS) of 12.9 µM. For the same molecule, the TGI (SF-268 CNS) was 28.6 µM, the GI50 (K-562 leukemia) was 2.82 µM and the TGI (K-562 leukemia) was 18 µM. The GI50 (CAKI-1 renal) was 5.59 µM, the TGI (CAKI-1 renal) was 19.2 µM and the GI50 (CCRF-CEM leukemia) was 3.43 µM. It also gave a TGI (CCRF-CEM leukemia) of 26.3 µM, a GI50 (SN12C renal) of 12 µM and a TGI (SN12C renal) of 25.1 µM. For the same molecule, the GI50 (SF-539 CNS) was 3.63 µM, the TGI (SF-539 CNS) was 13.3 µM and the GI50 (PC-3 prostate) was 10.3 µM. For the same molecule, the TGI (PC-3 prostate) was 24.7 µM, the GI50 (NCI-H226 lung) was 16.8 µM and the TGI (NCI-H226 lung) was 38.8 µM. The GI50 (NCI-H522 lung) was 3.15 µM, the TGI (NCI-H522 lung) was 13.7 µM and the GI50 (SK-MEL-28 melanoma) was 13 µM. The TGI (SK-MEL-28 melanoma) was 25.7 µM, the GI50 (TK-10 renal) was 15 µM and the TGI (TK-10 renal) was 28.4 µM. It also gave a GI50 (ACHN renal) of 11.7 µM, a TGI (ACHN renal) of 23.9 µM and a GI50 (OVCAR-5 ovarian) of 16.3 µM. For the same molecule, the TGI (OVCAR-5 ovarian) was 29.8 µM, the GI50 (U251 CNS) was 4.49 µM and the TGI (U251 CNS) was 16.5 µM. It also gave a GI50 (MOLT-4 leukemia) of 2.88 µM, a TGI (MOLT-4 leukemia) of 8.39 µM and a GI50 (A498 renal) of 13.9 µM. The TGI (A498 renal) was 27.8 µM, the GI50 (MALME-3M melanoma) was 11.8 µM and the TGI (MALME-3M melanoma) was 24.3 µM. It also gave a GI50 (T-47D breast) of 4.32 µM, a TGI (T-47D breast) of 21.3 µM and a GI50 (MDA-MB-231 breast) of 7.99 µM. The TGI (MDA-MB-231 breast) was 21 µM, the GI50 (UO-31 renal) was 7.83 µM and the TGI (UO-31 renal) was 20.6 µM. It also gave a GI50 (SK-MEL-5 melanoma) of 11.1 µM, a TGI (SK-MEL-5 melanoma) of 23.3 µM and a GI50 (OVCAR-3 ovarian) of 5.16 µM. It also gave a TGI (OVCAR-3 ovarian) of 17 µM, a GI50 (HCT-116 colon) of 6.17 µM and a TGI (HCT-116 colon) of 21.3 µM. For the same molecule, the GI50 (HOP-62 NSCLC) was 10.7 µM, the TGI (HOP-62 NSCLC) was 23.9 µM and the GI50 (SR leukemia) was 1.91 µM. It also gave a TGI (SR leukemia) of 15.1 µM, a GI50 (SF-295 CNS) of 10.9 µM and a TGI (SF-295 CNS) of 22.8 µM. It also gave a GI50 (UACC-257 melanoma) of 12.7 µM, a TGI (UACC-257 melanoma) of 25.7 µM and a GI50 (RXF 393 renal) of 5.76 µM. The TGI (RXF 393 renal) was 20.7 µM, the GI50 (HT29 colon) was 16.2 µM and the TGI (HT29 colon) was 30.2 µM. The GI50 (LOX IMVI melanoma) was 5.47 µM, the TGI (LOX IMVI melanoma) was 18.1 µM and the GI50 (OVCAR-8 ovarian) was 8.17 µM. It also gave a TGI (OVCAR-8 ovarian) of 23.2 µM, a GI50 (MDA-MB-435) of 2.22 µM and a TGI (MDA-MB-435) of 4.84 µM. It also gave a GI50 (COLO 205 colon) of 18.7 µM, a TGI (COLO 205 colon) of 34.1 µM and a GI50 (IGROV1 ovarian) of 13.4 µM. It also gave a TGI (IGROV1 ovarian) of 26.5 µM, a GI50 (MDA-MB-468 breast) of 2.07 µM and a TGI (MDA-MB-468 breast) of 5.71 µM. It also gave a GI50 (KM12 colon) of 3.76 µM, a TGI (KM12 colon) of 14.6 µM and a GI50 (MCF7 breast) of 4.89 µM. For the same molecule, the TGI (MCF7 breast) was 20 µM, the GI50 (SNB-75 CNS) was 6.08 µM and the TGI (SNB-75 CNS) was 18.6 µM. For the same molecule, the GI50 (OVCAR-4 ovarian) was 13.6 µM, the TGI (OVCAR-4 ovarian) was 31 µM and the GI50 (UACC-62 melanoma) was 10.2 µM. For the same molecule, the TGI (UACC-62 melanoma) was 22.1 µM, the GI50 (HS 578T breast) was 11.9 µM and the TGI (HS 578T breast) was 38.6 µM. It also gave a GI50 (DU-145 prostate) of 7.31 µM, a TGI (DU-145 prostate) of 19.8 µM and a GI50 (SK-MEL-2 melanoma) of 13.7 µM. The TGI (SK-MEL-2 melanoma) was 26.9 µM, the GI50 (A549 NSCLC) was 6.2 µM and the TGI (A549 NSCLC) was 20.6 µM. The GI50 (M14 melanoma) was 11.3 µM, the TGI (M14 melanoma) was 25.1 µM and the GI50 (BT-549 breast) was 3.29 µM. For the same molecule, the TGI (BT-549 breast) was 13.2 µM, the GI50 (HCT-15 colon) was 3.69 µM and the TGI (HCT-15 colon) was 14.5 µM. It also gave a GI50 (786-0 renal) of 12.2 µM, a TGI (786-0 renal) of 25 µM and a GI50 (EKVX NSCLC) of 10.3 µM. It also gave a TGI (EKVX NSCLC) of 21.9 µM.
